Assays:
Format in all cases: biochemical
MtbClpP1P2 = MtbClpP1P2 (Mycobacterium tuberculosis, UniProt P9WPC5); assay: fluorogenic peptidase assay, Z-Gly-Gly-Leu-AMC
hClpP = hClpP (Homo sapiens, UniProt Q16740); assay: fluorogenic peptidase assay, Suc-LY-AMC
PaClpP1 = PaClpP1 (Pseudomonas aeruginosa, UniProt Q9I2U1); assay: fluorogenic peptidase assay, Suc-LY-AMC
SaClpP = target: T1, SaClpP (Staphylococcus aureus, UniProt Q2G036); assay: fluorogenic peptidase assay, Suc-LY-AMC
T1 sequence (Q2G036 1-195): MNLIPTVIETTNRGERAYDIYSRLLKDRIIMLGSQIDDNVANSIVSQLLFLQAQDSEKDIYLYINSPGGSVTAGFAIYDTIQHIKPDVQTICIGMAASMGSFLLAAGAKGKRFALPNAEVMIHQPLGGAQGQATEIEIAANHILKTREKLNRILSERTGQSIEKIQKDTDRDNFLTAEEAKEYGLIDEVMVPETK

EcClpP = EcClpP (Escherichia coli, UniProt P0A6G7); assay: fluorogenic peptidase assay, Suc-LY-AMC
EcClpP, sequence (P0A6G7 15-207): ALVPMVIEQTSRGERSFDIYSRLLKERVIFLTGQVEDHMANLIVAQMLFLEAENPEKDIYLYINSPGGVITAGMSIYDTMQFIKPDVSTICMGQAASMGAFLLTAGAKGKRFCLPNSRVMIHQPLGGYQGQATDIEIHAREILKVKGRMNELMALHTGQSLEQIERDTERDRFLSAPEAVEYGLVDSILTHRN

MtbClpP1P2, sequence (P9WPC5 whole entry, looked up): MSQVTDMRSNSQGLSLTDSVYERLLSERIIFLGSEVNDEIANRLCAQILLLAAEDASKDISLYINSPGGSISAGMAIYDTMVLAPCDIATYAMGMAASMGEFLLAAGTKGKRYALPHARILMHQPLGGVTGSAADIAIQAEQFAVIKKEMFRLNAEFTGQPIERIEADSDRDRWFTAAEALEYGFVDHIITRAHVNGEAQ
PaClpP1, sequence (Q9I2U1 whole entry): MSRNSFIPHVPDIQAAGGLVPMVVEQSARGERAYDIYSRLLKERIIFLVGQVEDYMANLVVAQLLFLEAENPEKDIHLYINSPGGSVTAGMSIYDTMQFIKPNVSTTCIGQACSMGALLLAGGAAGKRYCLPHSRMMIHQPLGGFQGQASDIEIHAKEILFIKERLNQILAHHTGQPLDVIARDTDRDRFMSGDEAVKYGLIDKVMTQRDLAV
hClpP, sequence (Q16740 58-277): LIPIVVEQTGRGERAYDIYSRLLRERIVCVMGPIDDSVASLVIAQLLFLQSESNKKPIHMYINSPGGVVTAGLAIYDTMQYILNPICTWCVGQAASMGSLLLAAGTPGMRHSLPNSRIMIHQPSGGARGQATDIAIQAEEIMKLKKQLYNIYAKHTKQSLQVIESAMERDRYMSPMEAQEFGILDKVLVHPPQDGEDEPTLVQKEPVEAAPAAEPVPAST

Row | Structure (SMILES) | IC50 (MtbClpP1P2) | IC50 (hClpP) | IC50 (PaClpP1) | IC50 (SaClpP) | IC50 (EcClpP)
1 | Cc1cc2c(F)c(Oc3ncnn4cc(OC[C@@H](C)O)c(C)c34)ccc2[nH]1 [brivanib] | 12.5 µM | – | – | – | –
2 | COc1cc2c(Oc3ccc4[nH]c(C)cc4c3F)ncnc2cc1OCCCN1CCCC1 [cediranib] | 3.4 ± 0.7 µM | 36.6 ± 0.5 µM | > 100 µM | > 100 µM | > 100 µM

Reference: doi:10.1101/713214v1 (biorxiv, 2019)
